According to patent publication US6387938B1, “Benzimidazole derivatives” (Mochida Pharmaceutical Co., Ltd., priority 1996, dated 2002):

Assays:
BALB/c male mice = test: Toxicity test in mice, repeated oral dosing; assay type: in vivo
[1] = Hydrolysis of the ester bond in the rat; assay type: in vivo
SD female rats = test: Toxicity test in rats, 14 days oral dosing; assay type: in vivo; conditions: 0.5% HPMC suspension, 300 mg/kg/day for 14 days
Protocol: SD female rats were orally treated with the compounds of Inventive Examples 54 and 55 suspended in 0.5% aqueous solution of HPMC at a dose of 300 mg/kg/day for 14 days.

[2] = test system: intraperitoneal eosinophilia; test: Action on intraperitoneal eosinophilia model mice; assay type: in vivo, BALB/c male mice; conditions: BALB/c mice sensitized with swine roundworm extract; oral once a day, 10 times; dose 10 mg/kg/day
Protocol: Using five animals per group of BALB/c male mice (about 25 g in body weight), 0.11 mL of physiological saline containing 0.1 mg of swine roundworm extract was administered into the peritoneal cavity of each mouse to sensitize. The same treatment was repeated 7 days after the administration and, 3 days thereafter, each animal was sacrificed by phlebotomy, 3 mL of physiological saline containing 1% dipotassium ethylenediaminetetraacetate (EDTA) was administered by intraperitoneal injection and its abdominal region was massaged for about 30 seconds. […] A portion of the cell suspension was daubed on a slide glass using a spinner to carry out Diff-Quik staining, and then total leukocytes and eosinophils were counted to calculate the ratio of eosinophils in the total leukocytes. The number of total leukocytes in the cell suspension was measured using an automatic blood cell counter. The number of eosinophils in the cell suspension was calculated by multiplying the ratio of eosinophils in the total leukocytes by the number of total leukocytes. […] The dose of each compound to be tested and the intraperitoneal eosinophilia inhibition rate calculated by the following formula are shown in Table 1. […]

[3] = test system: IFN-γ production of the spleen cell; test: Action of IFN-γ production enhancement in tumor-bearing mouse; assay type: in vivo; conditions: B16F10 tumor-bearing C57BL/6 mouse, oral day 7 to day 21, spleen cells cultivated 24 hours with no stimulation, EIA, N = 7
Protocol: B16F10 cells cultivated in DMEM (Dulbecco's medium) supplemented with 10% FCS (fetal calf serum) were treated with trypsin, washed with PBS (phosphate buffered saline, pH 7.4), and adjusted in PBS to 1×10^7 cells/ml. The cells were subcutaneously injected in the abdomen of male C57BL/6 mouse (7 week old; body weight, about 23 g) at a dose of 0.1 ml/mouse. The day of tumor inoculation was designated day 0, and the tumor diameter was measured at day 7 with a vernier caliper. The tumor volume was calculated in terms of (minor diameter)^2×(major diameter), and the mice were grouped by using this value and the body weight for the indexes. […] The test compound was orally administered from day 7 to day 21. The solvent used was 0.5% HPMC (Hydroxy propyl methyl cellurose), and the control group was administered only with the solvent. At day 22, the mice were decapitated and the spleens were removed. After weighing the organs, the spleen was homogenized with a glass homogenizer, adjusted to 5×10^6 cells/ml, and cultivated in S-Clone SF-B medium (Sanko Pure Chemicals). The culture supernatant was collected after 24 hours, and […] at −80° C. The supernatant was measured for its IFN-γ concentration (pg/mL) by EIA (Enzyme Immunoassay). The measurement was conducted with an assay kit of ENDOGEN.

[4] = 5% acacia suspension, 100 mg/kg/day for 7 days, observed for 3 days after administration
[5] = 0.5% HPMC suspension, 100 mg/kg/day for 4 days

SMILES | Abnormality in body weight and general symptoms (BALB/c male mice; [4]) | Mortality (BALB/c male mice; [4]) | Abnormality in body weight and general symptoms (BALB/c male mice; [5]) | Mortality (BALB/c male mice; [5]) | also measured
COC(=O)CC(=O)c1cccc2nc(CCc3ccccc3)[nH]c12 [compound 2] | no abnormality | no mortal case |  |  | 
O=C(O)CC(O)c1cccc2nc(CCc3ccccc3)[nH]c12 (stereo not drawn) |  |  |  |  | melting point: 103 to 105.3 °C
O=C(O)CC(=O)c1cccc2nc(CCc3ccccc3)[nH]c12 [compound 1] | no abnormality | no mortal case |  |  | 
CCOC(=O)CC(O)c1cccc2nc(CCc3ccccc3)[nH]c12 (stereo not drawn) [compound 54] |  |  | no abnormality | No mortal case | Ester bond hydrolysis to generate carboxyl group [1]: hydrolyzed; Relative liver weight (SD female rats): significant increase
O=C(O)CC(O)c1cccc2nc(CCc3ccccc3)[nH]c12 (stereo not drawn) [compound 7] | no abnormality | no mortal case | no abnormality | No mortal case | 
CCOC(=O)CC(=O)c1cccc2c1nc(CCc1ccccc1)n2C [compound 10] | no abnormality | no mortal case |  |  | 
CCOC(=O)CC(O)c1cccc2nc(CCc3ccccc3)[nH]c12 (stereo not drawn) [compound 55] |  |  | no abnormality | No mortal case | Ester bond hydrolysis to generate carboxyl group [1]: hydrolyzed; Relative liver weight (SD female rats): no such increase
CCOC(=O)CC(=O)c1cccc2nc(CCc3ccccc3)[nH]c12 [compound 3] |  |  |  |  | Intraperitoneal eosinophilia inhibition rate (%) [2]: 67%
COC(=O)CC(O)c1cccc2nc(CCc3ccccc3)[nH]c12 (stereo not drawn) [compound 5] | no abnormality | no mortal case |  |  | 
CCOC(=O)CC(O)c1cccc2nc(CCc3ccccc3)[nH]c12 (stereo not drawn) [compound 6] |  |  | no abnormality | No mortal case | IFN-γ concentration ([3]; dose 10 mg/kg/day): 125 pg/mL; IFN-γ concentration ([3]; dose 30 mg/kg/day): 194 pg/mL; IFN-γ concentration ([3]; dose 100 mg/kg/day): 263 pg/mL
